{"source": "patent US20120220462A1", "about": "“INDUCING AGENT FOR PLANT ROOT” (Shiseido Company, Ltd., priority 2004, published 2012)", "format_in_all_cases": "in vivo", "key": {"[1]": {"system": "Hydrangea (variety name unknown) branches including dormant buds", "test": "Evaluation Test 2: root inducing performance on Hydrangea branch cuttings including dormant buds, in soil", "conditions": "for Weight with soil attached / No. of roots grown/specimen: one month at 25° C.; for Weight with soil attached: water treatment 1.5; for No. of roots grown/specimen: water treatment 2.1", "method": "Branches of Hydrangea (variety name unknown) including dormant buds were cut to 5 cm or so lengths in December and were transplanted into trays filled with soil composed of red gravel and vermiculite (7:3). Water or a specific ketol fatty acid (Ia) (10 μM, 100 μM) was sprayed, the specimens were then cultured in a 25° C. biochamber (12 hour bright/dark cycle) for one month. The weights in the state with the soil attached, when pulling the cuttings from the soil and the number of roots grown were measured. Note that an increase in the weight with the soil attached accompanies improvement of the soil holding rate accompanying development of fibrous roots and the proliferation of leaf buds."}, "[2]": {"system": "Prunus×yedoensis (cherry tree) cuttings", "test": "Root inducing performance test for Prunus×yedoensis cuttings (survival)", "conditions": "10 branches, water 0%", "text": "15 test groups including the root inducing agent of the present invention alone and combinations of the agent with other existing root inducing agents were used for a test of the root inducing performance for Prunus×yedoensis.\nThe existing root inducing agents used for the test were the indole inducing agent shown by the following formula (V) (hereinafter abbreviated as the “IBL”. See Japanese Patent Publication No. 10-77268A) and the commercially available root inducing agent Oxiberon (hereinafter abbreviated as “Oxy”, Made by Bayer CropScience).\nTest Group (1): water, Test Group (2): KODA 10 μM, Test Group (3): KODA 100 μM, Test Group (4): Oxy, Test Group (5): IBL 50 ppm, Test Group (6): IBL 100 ppm, Test Group (7): KODA 10 μM+Oxy, Test Group (8): KODA 100 μM+Oxy, Test Group (9): KODA 10 μM+IBL 50 ppm, Test Group (10): KODA 100 μM+IBL 50 ppm, Test Group (11): KODA 10 μM+IBL 100 ppm, Test Group (12): KODA 100 μM+IBL 100 ppm, Test Group (13): KODA 10 μM+IBL 50 ppm+Oxy, Test Group (14): KODA 100 μM+IBL 50 ppm+Oxy, Test Group (15): KODA 100 μM+IBL 100 ppm+Oxy.\nBranches of Prunus×yedoensis used for the test were purchased from Sumitomo Forestry Landscaping Co., Ltd. These were cut to lengths of 5 to 8 cm or so from the tips and transplanted into mixed soil in trays composed of red gravel and vermiculite blended in a 7:3 ratio. At this time, 10 branches were used for each test group. […]"}, "[3]": {"system": "Paraserianthes falcataria Becker cuttings", "test": "Root inducing performance test for Paraserianthes falcataria Becker cuttings", "conditions": "Oxiberon 0, after two months", "text": "Paraserianthes falcataria Becker useful as a material for producing plywood is a tropical plant, but like other trees, cannot be transplanted by cutting as the trees age. The inventors tried transplanting Paraserianthes falcataria Becker, considered impossible to transplant by cuttings, using KODA and the existing root inducing agent Oxiberon (made by Bayer CropScience). For the cultivation soil, they used red gravel granules."}, "[4]": {"system": "Hypericum chinense cuttings", "test": "Root inducing performance test for Hypericum chinense cuttings", "method": "In this Example 3, in the same way as in Example 2, the specific ketol fatty acid (Ia) was used to test the root inducing performance for Hypericum chinense.\nThe compositions of the root inducing agents and the root inducing test procedure used in the test groups were the same as in Example 2. As a result of the tests, it was learned that there was 100% survival of the cuttings of Hypericum chinense in the case of use of the root inducing agent (10 μM) and IBL (50 ppm).\nNote that the asterisks at the tops of the bar graphs of FIG. 1 indicate the rate of risk in measurement of the significant difference. One indicates a rate of risk of 5% or less, two a rate of risk of 1% or less, and three a rate of risk of 0.5% or less."}, "[5]": {"system": "Hydrangea (variety name unknown) second node parts", "test": "Evaluation Test 1: root inducing performance on cut second node parts of Hydrangea, sprayed, on laboratory dishes", "conditions": "25° C. continuous light, 20 days, five specimens, water group 1.1", "method": "The second node parts of Hydrangea (variety name unknown) were cut out in August and placed on laboratory dishes, on which filter paper was laid.\nAqueous solutions of the specific ketol fatty acid (Ia) (concentrations 100 μM and 200 μM) were prepared and sprayed by sprayers on said cut Hydrangea, which were then allowed to stand covered for 2 hours. Note that the control group was sprayed with pure water and allowed to stand in the same way as the specific ketol fatty acid (Ia). Thereafter, water was added and the resultant product allowed to stand at 25° C. under continuous light for 20 days.\nThe average number of roots grown were counted for five specimens in each group, whereby the average for the water treatment group was 1.1, the specific ketol fatty acid (Ia) 100 μM group was 3.2, and the 200 μM group 3.1."}}, "data": [{"smiles": "CC/C=C\\C/C=C\\CC(=O)C(O)CCCCCCCC(=O)O", "note": "(centres unmarked) [specific ketol fatty acid (Ia), 9-hydroxy-10-oxo-12(Z),15(Z)-octadecadienoic acid]", "values": [{"measurement": "Weight with soil attached", "setting": "[1]; 10 μM sprayed", "value": 6.8, "unit": "g/specimen"}, {"measurement": "No. of roots grown/specimen", "setting": "[1]; 10 μM sprayed", "value": 5.3}, {"measurement": "development of leaf buds", "setting": "[1]; 10 μM, 100 μM sprayed, one month, read from Table II results", "value": "promotes development of leaf buds"}, {"measurement": "Weight with soil attached", "setting": "[1]; 100 μM sprayed", "value": 4.4, "unit": "g/specimen"}, {"measurement": "No. of roots grown/specimen", "setting": "[1]; 100 μM sprayed", "value": 6.5}, {"measurement": "number of cuttings surviving seven weeks after the start of the test", "setting": "[2]; Test Group (2): KODA 10 μM", "value": 10, "unit": "%"}, {"measurement": "number of cuttings surviving seven weeks after the start of the test", "setting": "[2]; Test Group (3): KODA 100 μM", "value": 10, "unit": "%"}, {"measurement": "Maximum root length", "setting": "[3]; KODA 10 (μm)", "value": 27.3, "unit": "mm"}, {"measurement": "Root dried weight", "setting": "[3]; KODA 10 (μm)", "value": 1.8, "unit": "mg"}, {"measurement": "Root Inducing rate", "setting": "[3]; KODA 10 (μm), sprayed", "value": 44, "unit": "%"}, {"measurement": "Maximum root length", "setting": "[3]; KODA 100 (μm)", "value": 5.3, "unit": "mm"}, {"measurement": "Root Inducing rate", "setting": "[3]; KODA 100 (μm)", "value": 11, "unit": "%"}, {"measurement": "Root dried weight", "setting": "[3]; KODA 100 (μm)", "value": 2.9, "unit": "mg"}, {"measurement": "amount of root inducing compared with the water-treated group (FIG. 1)", "setting": "[4]; Test Group (2): KODA 10 μM", "value": "clearly increased"}, {"measurement": "amount of root inducing compared with the water-treated group (FIG. 1)", "setting": "[4]; Test Group (3): KODA 100 μM", "value": "clearly increased"}, {"measurement": "average number of roots grown", "setting": "[5]; 100 μM aqueous solution sprayed", "value": 3.2}, {"measurement": "average number of roots grown", "setting": "[5]; 200 μM aqueous solution sprayed", "value": 3.1}]}]}
